Results reported in US9700024B2 (priority 2010, dated 2017).
Entries after “also recorded” stand apart in the source; their conditions may differ.

Key:
mPIGF [1] = test: Circulating mPIGF in wild-type female mice not treated with viral vector; type: in vivo, mouse
Description: Pravastatin sodium salt (Cayman Chemical) was dissolved in 100% ethanol to produce a stock solution (1 mg/mL), which was diluted by sterile PBS (25 μg/mL) before use and intraperitoneally injected every day starting from E7.5 to E18.5 at 5 μg/animal unless specifically instructed otherwise.
(§1) Blood samples were allowed to clot and were centrifuged to prepare serum samples. Concentrations of hsF1T1, mVEGF, and mPIGF were measured with ELISA kits, according to the manufacturer's instructions (R&D system). Aspartate aminotransferase (AST) and alanine transaminase (ALT) were measured by Fuji dry-chem 3500V and dri-chem slides (Fuji Film.co). Urine samples were collected at E18.5. Urine albumin and creatinine concentrations were measured by using the Fuji dry-chem 3500V and dri-chem slides (Fuji Film.co, Tokyo Japan).

[2] = tested on: pregnancy-induced hypertension syndrome model mice (placenta-specific hsFLT1 expression); test: Urinary albumin/creatinine (proteinuria) in model mice; type: in vivo, mouse; details: urine at E18.5; average ± S.E.M.
Description: as §1

mPIGF [3] = test: mPIGF concentration in the mother's blood by ELISA, LV-hsFLT1 model; type: in vivo, mouse; details: E18.5, pravastatin every day from E7.5, n=7
Description: as §1

hsFLT1 = hsFLT1 concentration in the mother's blood by ELISA; type: in vivo, mouse; details: E18.5; LV-hsFLT1 100 ng-p24/mL; pravastatin every day from E7.5 where given; mean±s.e.m.
Description: as §1

[4] = tested on: pups of the pravastatin-treated female animals; test: Deformity in pups of treated female animals
wild-type pregnant mice = details: normal pregnant animals without LV-hsFLT1
Description: Blood pressure was measured by the tail-cuff method (Softron Ltd, Tokyo, Japan). The mice were lightly fixed in a small cage without anesthesia, and their blood pressure was measured after their behavior, heart rate, and blood pressure stabilized. After stabilization, both systolic and diastolic blood pressures were recorded at least five times until the stabilization became unstable. Mean values of both the systolic and diastolic blood pressures measured as mentioned above were used for further statistical analysis.

mVEGF = mVEGF concentration in the mother's blood by ELISA; type: in vivo, mouse; details: E18.5; LV-hsFLT1 model; pravastatin every day from E7.5; n=6
Description: as §1

[5] = tested on: human umbilical vein endothelial cells (HUVECs); test: In vitro expression of PIGF as an effect of statin, HUVEC; type: cell-based; details: statin 1 μM or 10 μM, 24 hours
Description: For HUVEC cells, each of the stock solutions was added upon dilution to 1 μM or 10 μM in a culture medium.
HUVEC and HEK293T cells were plated at 2×10^4 and 1×10^5 cells per well in 6-well plates, respectively, and incubated under 5% CO2 at 37° C. After 24 hours, the medium was replaced with a fresh medium containing or not containing a statin. The media collected after another 24 hours were centrifuged at 1,000×g, and the supernatants were subjected to ELISA.

[6] = tested on: rat model of preeclampsia; details: Hypertension 2007; 50(4): 686-92; cited from earlier work
[7] = tested on: hypertension induced by sFLT1 expressed by an adenovirus; details: Hypertension 2009; 54(5): 1129-35; cited from earlier work

For `CC[C@H](C)C(=O)O[C@H]1C[C@H](O)C=C2C=C[C@H](C)[C@H](CC[C@@H](O)C[C@@H](O)CC(=O)O)[C@H]21` [pravastatin, Monosodium(3R,5R)-3,5-dihydroxy-7-{(1S,2S,6S,8S,8aR)-6-hydroxy-2-methyl-8-[(2S)-2-methylbutanoyloxy]-1,2,6,7,8,8a-hexahydronaphthalen-1-yl}heptanoate], the “circulating mPIGF” value (mPIGF [1]; wild-type non-pregnant female animals, n=5) was 29.8 ± 13.2 pg/mL, the “circulating mPIGF” value (mPIGF [1]; wild-type pregnant female animals, n=4) was 152.0 ± 19.7 pg/mL and the “ALBUMIN/CREATININE AVERAGE” value [2] was 4.06 ± 0.38. For the same molecule, the “mPIGF concentration in maternal blood” value (mPIGF [3]) was 116.6 ± 13.2 pg/mL, the “circulating hsFLT1 concentration in the mother's blood” value (hsFLT1) was 0.99 ± 0.65 ng/mL and the “deformity in the pups” value [4] was “did not notice any deformity”. For the same molecule, the “blood pressure / hypotensive effect” value (wild-type pregnant mice) was “not hypotensive; also recorded: did not change” and the “mVEGF protein level in maternal blood” value (mVEGF) was 35.5 ± 13.6 pg/mL.

In the case of `CC(C)c1c(C(=O)Nc2ccccc2)c(-c2ccccc2)c(-c2ccc(F)cc2)n1CC[C@@H](O)C[C@@H](O)CC(=O)O` [atorvastatin, (−)-Monocalcium bis {(3R,5R)-7-[2-(4-fluorophenyl-5-isopropyl-3-phenyl-4-phenylcarbamoyl-1H-pyrrol-1-yl]-3,5-dihydroxyheptanoate}trihydrate], the “PIGF production in supernatant” value [5] is reported as “induced PGF production; also recorded: induce PIGF production”.

In the case of VEGF, the hypertension [6] is listed as “improves hypertension”.

B1: recombinant PIGF: recombinant placental growth factor 2 (literature) (protein)
chain: VHSQGALSAGNNSTEVEVVPFNEVWGRSYCRPMEKLVYILDEYPDEVSHIFSPSCVLLSRCSGCCGDEGLHCVPIKTANITMQILKIPPNRDPHFYVEMTFSQDVLCECRPILETTKAERRKTKGKRKRSRNSQTEEPHP
For B1, the hypertension [7] is given as “improves hypertension”.
